In patent US8946230B2, “Aryl- and heteroaryl- nitrogen-heterocyclic compounds as PDE10 inhibitors” (Amgen Inc., priority 2010, dated 2015):

These molecules were tested against T1, PDE10 (UniProt Q8CA95) (assay: PDE10 enzyme inhibition, IMAP TR-FRET assay (Example A: MPDE10A7 Enzyme Activity and Inhibition)). Details: Table 1A, Examples 11-56; read-out: PDE10 IC50.
T1 sequence (Q8CA95 1-790): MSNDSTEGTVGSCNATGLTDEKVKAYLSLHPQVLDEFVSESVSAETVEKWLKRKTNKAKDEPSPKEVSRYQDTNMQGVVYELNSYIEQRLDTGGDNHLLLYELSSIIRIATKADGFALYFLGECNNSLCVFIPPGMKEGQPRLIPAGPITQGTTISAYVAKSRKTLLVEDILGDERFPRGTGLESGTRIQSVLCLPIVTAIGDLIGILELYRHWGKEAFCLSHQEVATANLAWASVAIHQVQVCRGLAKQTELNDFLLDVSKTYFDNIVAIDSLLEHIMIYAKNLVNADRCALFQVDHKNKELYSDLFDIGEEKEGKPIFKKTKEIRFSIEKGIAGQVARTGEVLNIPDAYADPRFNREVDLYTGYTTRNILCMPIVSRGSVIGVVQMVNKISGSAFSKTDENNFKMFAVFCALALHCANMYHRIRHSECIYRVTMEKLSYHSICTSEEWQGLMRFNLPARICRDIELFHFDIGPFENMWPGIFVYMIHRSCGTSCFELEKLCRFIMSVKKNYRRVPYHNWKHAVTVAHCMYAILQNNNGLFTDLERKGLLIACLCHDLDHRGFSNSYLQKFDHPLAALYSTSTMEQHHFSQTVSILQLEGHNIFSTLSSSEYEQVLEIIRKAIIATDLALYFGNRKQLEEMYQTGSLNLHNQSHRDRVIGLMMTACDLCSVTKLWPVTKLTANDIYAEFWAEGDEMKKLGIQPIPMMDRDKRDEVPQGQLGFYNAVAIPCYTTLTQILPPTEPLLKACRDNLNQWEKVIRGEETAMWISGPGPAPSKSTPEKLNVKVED
Format: biochemical
Experimental: MPDE10A7 Enzyme Activity and Inhibition Enzyme Activity. An IMAP TR-FRET assay was used to analyze the enzyme activity (Molecular Devices Corp., Sunnyvale Calif.). 5 μL of serial diluted PDE10A (BPS Bioscience, San Diego, Calif.) or tissue homogenate was incubated with equal volumes of diluted fluorescein labeled cAMP or cGMP for 60 min in 384-well polystyrene assay plates (Corning, Corning, N.Y.) at room temperature. After incubation, the reaction was stopped by adding 60 μL of diluted binding reagents and was incubated for 3 hours to overnight at room temperature. The plates were read on an Envision (Perkin Elmer, Waltham, Mass.) for time resolved fluorescence resonance energy transfer. The data were analyzed with GraphPad Prism (La Jolla, Calif.). Enzyme Inhibition. To check the inhibition profile, 5 μL of serial diluted compounds were incubated with 5 μL of diluted PDE10 enzyme (BPS Bioscience, San Diego, Calif.) or tissue homogenate in a 384-well polystyrene assay plate (Corning, Corning, N.Y.) for 30 min at room temperature. After incubation, 10 μL of diluted fluorescein labeled cAMP or cGMP substrate were added and incubated for 60 min at room temperature. The reaction was stopped by adding 60 μL of diluted binding reagents and plates were read on an Envision (Perkin Elmer, Waltham, Mass.) for time resolved fluorescence resonance energy transfer. The data were analyzed with GraphPad Prism (La Jolla, Calif.).
In the case of `N#Cc1ccc2[nH]c(C3CCN(c4ncccc4Cl)C3)nc2c1` (stereo not drawn) [Example 11, 2-[1-(3-chloro-pyridin-2-yl)-pyrrolidin-3-yl]-1H-benzoimidazole-5-carbonitrile], the IC50 is reported as 310 nM.
Molecule `N#Cc1ccc2[nH]c(C3CCN(c4nccnc4N4CCOCC4)C3)nc2c1` (stereo not drawn) [Example 12, 2-[1-(3-Morpholin-4-yl-pyrazin-2-yl)-pyrrolidin-3-yl]-1H-benzoimidazole-5-carbonitrile] has an IC50 of 535 nM.
Molecule `c1ccc(-c2nccnc2N2CCC(c3nc4cc(C5CC5)ccc4[nH]3)CC2)cc1` [Example 13, 5-Cyclopropyl-2-[1-(3-phenyl-pyrazin-2-yl)-piperidin-4-yl]-1H-benzoimidazole] has an IC50 of 277 nM.
In the case of `N#Cc1ccc2[nH]c(C3CN(c4nccnc4-c4ccccc4)C3)nc2c1` [Example 14, 2-[1-(3-phenyl-pyrazin-2-yl)-azetidin-3-yl]-1H-benzoimidazole-5-carbonitrile], the IC50 is reported as 161 nM.
For `N#Cc1ccc2[nH]c(C3CCN(c4nccnc4-c4ccccc4)C3)nc2c1` (stereo not drawn) [Example 15, 2-[1-(3-phenyl-pyrazin-2-yl)-pyrrolidin-3-yl]-1H-benzoimidazole-5-carbonitrile], the IC50 was 461 nM.
`O=C(c1cccnc1N1CC(c2nc3cc(Cl)ccc3[nH]2)C1)N1CCC1` [Example 16, Azetidin-1-yl-{2-[3-(5-chloro-1H-benzoimidazol-2-yl)-azetidin-1-yl]-pyridin-3-yl}-methanone] showed an IC50 of 1180 nM.
`O=C(c1cccnc1N1CC(c2nc3cc(Cl)ccc3[nH]2)C1)N1CCOCC1` [Example 17, {2-[3-(5-chloro-1H-benzoimidazol-2-yl)-azetidin-1-yl]-pyridin-3-yl}-morpholin-4-yl-methanone] was tested, and the IC50 was 32900 nM.
Molecule `O=C(Nc1ccccc1)c1cccnc1N1CC(c2nc3cc(Cl)ccc3[nH]2)C1` [Example 18, 2-[3-(5-chloro-1H-benzoimidazol-2-yl)-azetidin-1-yl]-N-phenyl-nicotinamide] has an IC50 of 2600 nM.
Work on `O=C(NCc1ccccc1)c1cccnc1N1CC(c2nc3cc(Cl)ccc3[nH]2)C1` [Example 19, N-Benzyl-2-[3-(5-chloro-1H-benzoimidazol-2-yl)-azetidin-1-yl]-nicotinamide] yielded an IC50 of 4650 nM.
Work on `O=C(NCCc1ccccc1)c1cccnc1N1CC(c2nc3cc(Cl)ccc3[nH]2)C1` [Example 20, 2-[3-(5-chloro-1H-benzoimidazol-2-yl)-azetidin-1-yl]-N-phenethyl-nicotinamide] yielded an IC50 of 1680 nM.
With `CC(C)NC(=O)c1cccnc1N1CC(c2nc3cc(Cl)ccc3[nH]2)C1` [Example 21, 2-[3-(5-chloro-1H-benzoimidazol-2-yl)-azetidin-1-yl]-N-isopropyl-nicotinamide] the IC50 was 4780 nM.
`CC(C)CNC(=O)c1cccnc1N1CC(c2nc3cc(Cl)ccc3[nH]2)C1` [Example 22, 2-[3-(5-chloro-1H-benzoimidazol-2-yl)-azetidin-1-yl]-N-isobutyl-nicotinamide] was tested, and the IC50 was 2230 nM.
Work on `O=C(NCC1CCOCC1)c1cccnc1N1CC(c2nc3cc(Cl)ccc3[nH]2)C1` [Example 23, 2-[3-(5-chloro-1H-benzoimidazol-2-yl)-azetidin-1-yl]-N-(tetrahydro-pyran-4-ylmethyl)-nicotinamide] yielded an IC50 of 37600 nM.
Molecule `Cc1ccccc1-c1nccnc1N1CC(c2nc3cc(Cl)ccc3[nH]2)C1` [Example 24, 5-chloro-2-[1-(3-o-tolyl-pyrazin-2-yl)-azetidin-3-yl]-1H-benzoimidazole] has an IC50 of 80.6 nM.
`Cc1cccc(-c2nccnc2N2CC(c3nc4cc(Cl)ccc4[nH]3)C2)c1` [Example 25, 5-chloro-2-[1-(3-m-tolyl-pyrazin-2-yl)-azetidin-3-yl]-1H-benzoimidazole] showed an IC50 of 15 nM.
For `Cc1ccc(-c2nccnc2N2CC(c3nc4cc(Cl)ccc4[nH]3)C2)cc1` [Example 26, 5-chloro-2-[1-(3-p-tolyl-pyrazin-2-yl)-azetidin-3-yl]-1H-benzoimidazole], the IC50 was 134 nM.
`COc1ccccc1-c1nccnc1N1CC(c2nc3cc(Cl)ccc3[nH]2)C1` [Example 27, 5-chloro-2-{1-[3-(2-methoxy-phenyl)-pyrazin-2-yl]-azetidin-3-yl}-1H-benzoimidazole] showed an IC50 of 4330 nM.
Work on `COc1cccc(-c2nccnc2N2CC(c3nc4cc(Cl)ccc4[nH]3)C2)c1` [Example 28, 5-chloro-2-{1-[3-(3-methoxy-phenyl)-pyrazin-2-yl]-azetidin-3-yl}-1H-benzoimidazole] yielded an IC50 of 26 nM.
For `COc1ccc(-c2nccnc2N2CC(c3nc4cc(Cl)ccc4[nH]3)C2)cc1` [Example 29, 5-chloro-2-{1-[3-(4-methoxy-phenyl)-pyrazin-2-yl]-azetidin-3-yl}-1H-benzoimidazole], the IC50 was 110 nM.

Same assay, conditions: read-out: IC50
`N#Cc1ccc2[nH]c(C3CCN(c4nccnc4-c4ccccc4)CC3)nc2c1` [Example 1A, 2-[1-(3-PHENYL-PYRAZIN-2-YL)-PIPERIDIN-4-YL]-1H-BENZOIMIDAZOLE-5-CARBONITRILE] showed an IC50 of 272 nM.
`N#Cc1ccc2[nH]c(C3CCN(c4nccnc4N4CCOCC4)CC3)nc2c1` [Example 1B, 2-[1-(3-MORPHOLIN-4-YL-PYRAZIN-2-YL)-PIPERIDIN-4-YL]-1H-BENZOIMIDAZOLE-5-CARBONITRILE] showed an IC50 of 2000 nM.
`Cc1ccc2[nH]c(C3CN(c4nccnc4OC4CCOCC4)C3)nc2c1` [Example 1C, 5-METHYL-2-(1-(3-(TETRAHYDRO-2H-PYRAN-4-YLOXY)PYRAZIN-2-YL)AZETIDIN-3-YL)-1H-BENZO[D]IMIDAZOLE] was tested, and the IC50 was 239 nM.
For `Clc1ccc2[nH]c(C3CN(c4ccnc(N5CCOCC5)n4)C3)nc2c1` [Example 1D, 4-(4-(3-(5-CHLORO-1H-BENZO[D]IMIDAZOL-2-YL)AZETIDIN-1-YL)PYRIMIDIN-2-YL)MORPHOLINE], the IC50 was 645 nM.
Molecule `Cc1ccc2[nH]c(C3CN(c4c(Cl)cncc4Cl)C3)nc2c1` [Example 2A, 2-[1-(3,5-DICHLORO-PYRIDIN-4-YL)-AZETIDIN-3-YL]-5-METHYL-1H-BENZOIMIDAZOLE] has an IC50 of 210 nM.
With `Cc1ccc2[nH]c(C3CN(c4c(Cl)cncc4-c4ccccc4)C3)nc2c1` [Example 2B, 2-[1-(3-CHLORO-5-PHENYL-PYRIDIN-4-YL)-AZETIDIN-3-YL]-5-METHYL-1H-BENZOIMIDAZOLE] the IC50 was 22 nM.
In the case of `O=C(c1cccnc1N1CC(c2nc3cc(Cl)ccc3[nH]2)C1)N1CC(O)C1` [Example 3, {2-[3-(5-CHLORO-1H-BENZOIMIDAZOL-2-YL)-AZETIDIN-1-YL]-PYRIDIN-3-YL}-(3-HYDROXY-AZETIDIN-1-YL)-METHANONE], the IC50 is reported as 549 nM.
`CNC(=O)c1nccnc1N1CC(c2nc3cc(Cl)ccc3[nH]2)C1` [Example 4, 3-[3-(5-CHLORO-1H-BENZOIMIDAZOL-2-YL)-AZETIDIN-1-YL]-PYRAZINE-2-CARBOXYLIC ACID METHYLAMIDE] gave an IC50 of 3880 nM.
For `Clc1ccc2[nH]c(C3CN(c4cc(OC5CCOCC5)ccn4)C3)nc2c1` [Example 5, 5-CHLORO-2-(1-(4-(TETRAHYDRO-2H-PYRAN-4-YLOXY)PYRIDIN-2-YL)AZETIDIN-3-YL)-1H-BENZO[D]IMIDAZOLE], the IC50 was 1090 nM.
With `Clc1ccc2[nH]c(C3CN(c4cc(C5CCOCC5)ncn4)C3)nc2c1` [Example 6, 5-CHLORO-2-(1-(6-(TETRAHYDRO-2H-PYRAN-4-YL)PYRIMIDIN-4-YL)AZETIDIN-3-YL)-1H-BENZO[D]IMIDAZOLE] the IC50 was 1280 nM.
For `Clc1ccc2[nH]c(C3CN(c4nc(N5CCOCC5)ncc4Cl)C3)nc2c1` [Example 7, 4-(5-CHLORO-4-(3-(5-CHLORO-1H-BENZO[D]IMIDAZOL-2-YL)AZETIDIN-1-YL)PYRIMIDIN-2-YL)MORPHOLINE], the IC50 was 155 nM.
`Clc1ccc2[nH]c(C3CN(c4nccnc4C4CCOCC4)C3)nc2c1` [Example 8, 5-CHLORO-2-(1-(3-(TETRAHYDRO-2H-PYRAN-4-YL)PYRAZIN-2-YL)AZETIDIN-3-YL)-1H-BENZO[D]IMIDAZOLE] was tested, and the IC50 was 1160 nM.
Molecule `Clc1ccc2[nH]c(C3CN(c4cc(C5CCOCC5)ccn4)C3)nc2c1` [Example 9, 5-CHLORO-2-(1-(4-(TETRAHYDRO-2H-PYRAN-4-YL)PYRIDIN-2-YL)AZETIDIN-3-YL)-1H-BENZO[D]IMIDAZOLE] has an IC50 of 1170 nM.
With `Clc1ccc2[nH]c(C3CN(c4nccnc4OC4CCOCC4)C3)nc2c1` [Example 10, 5-CHLORO-2-(1-(3-(TETRAHYDRO-2H-PYRAN-4-YLOXY)PYRAZIN-2-YL)AZETIDIN-3-YL)-1H-BENZO[D]IMIDAZOLE] the IC50 was 900 nM.
